In patent EP4772500A1, “NOVEL ISOXAZOLE COMPOUND AS TM4SF5-SPECIFIC INHIBITOR AND USE THEREOF” (Seoul National University R&DB Foundation, priority 2023, dated 2025):

Tested on: TM4SF5-non-expressing cells (SNU449Cp)
Assay: Western blotting for signaling factor phosphorylation in TM4SF5-non-expressing cells
Assay type: cell-based, human
Method: Cell extracts were obtained from cells grown to a density of 70-80% without any treatment, or from cells treated with vehicle DMSO or drugs at the given concentrations for 24 hours. For the extract of hepatocytes or liver cancer cells, a lysis buffer (150 mM NaCl, 1% NP-40, 50 mM Tris-HCl, 0.25% sodium deoxycholate, pH 7.4) including a protease inhibitor cocktail (GenDEPOT) was used. In addition, after washing animal liver tissue twice with PBS, SDS, Na3VO4, and protease inhibitor cocktails (GenDEPOT) were added to a lysis buffer [50 mM Tris-HCl, pH 7.4, 1% NP40, 0.25% sodium deoxycholate, 150 mM NaCl, 1 mM EDTA (based on 500 ml)], followed by treatment at 4°C for 15 minutes. After centrifugation at 13,000 rpm at 4°C for 30 minutes, only the supernatant was transferred to a new microcentrifuge tube. After quantification using BCA reagent (Thermo Scientific), a 4 × sample buffer [100% glycerol 4 ml, Tris-HCl, pH 6.8, 2.4 ml, SDS 0.8 g, Bromophenol blue 4 mg, betamercaptoethanol 0.4 ml, H2O 3.1 ml (based on 10 ml)] was added, followed by boiling at 100°C for 5 minutes. After performing SDS-PAGE electrophoresis with the above samples and transferring them to Nitrocellulose Membranes Protran™ nitrocellulose membranes (Whatman), pre-treatment was performed with 5% skim milk for 1 hour. After pre-treatment, primary antibodies of p-FAK(Y861) (SC-16663), p-FAK(Y577) (SC-16665), c-Src (SC-8056), STAT3 (SC-8019), p-AKT 1/2/3(S473) (SC-7985), STATS (SC-835), Laminin γ2 (SC-393225), COL1A1 (SC-28657), CCL5(RANTES) (SC-514019) CCL20(MIP-3α) (SC-517441), SIRT1 (SC-74465), ChREBP (SC-515922), SREBP1 (SC-366513), DGAT1 (SC-271934), DGAT2 (SC-293211), MICA/B (SC-137242), SLAMF7 (SC-390840), α-tublin (SC-5286), β-actin (SC-47778), FUCA (SC-365496) (the above from Santa Cruz Biotech, USA), p-FAK(Y397) (cat # 611723), FAK (cat # 610088), p27 (cat # 610242) (the above from BD Transduction, USA), p-FAK(Y925) (#3284) p-c-Src(Y416) (#2101), p-STAT3(Y705) (#9145), p70S6K1 (#9202), p-p70S6K1(T389) (#9205), p-STAT5(Y694) (#9314), ACC (#3676), FASN (#3189), CPT1A (#12252), p-ACC(S79) (#11818), HA (#3724), PD-L1 (#13684), PD-1 (#86163), p-ERK1/2(T202/Y204) (#9101s), ERK1/2 (#9102s) (the above from Cell Signaling Tech., USA), pS10p27(S10) (ab62364), human SLAMF6 (ab224201), TIGIT (ab233404), CD34 (ab81289) (the above from Abcam, UK), mouse SLAMF6 (PA5-87823), NKG2D (PA5-102038) (the above from Thermofisher, USA), α-SMA (Sigma Aldrich, A5228), CCL2 (Invitrogen, MA5-17040), and CD155(PVR) (Biolegend, 337601), HA (Biolegend, USA), Strep-HRP(horse-radish peroxidase), StrepMAB-HRP (IBA, USA), AFP (FineTest, FNab00203) were reacted at 4°C for 15 hours. The next day, secondary antibodies were reacted, and development was performed on X-ray film using ECL (Pierce, USA). Anti-TM4SF5C-ter (epitope region of RKKQDTPH^197) and anti-TM4SF5EC2 (CLMNGEWGYHFEDTAGA^130) were custom-made at a professional antibody production company (Pro-Sci, Poway, CA, USA).
(a) Cell extracts were obtained after treating TM4SF5-non-expressing cells (SNU449Cp) and TM4SF5-expressing cells (SNU449T7) with vehicle (DMSO), ST-2-001, or an ST-2-001-based derivative drug at a concentration of 5 µM for 24 hours. (b) Cell extracts were obtained after treating SNU449Cp and SNU449T7 with DMSO, ST-2-001, ST-3-001, ST-3-006, ST-3-007, ST-3-010, or ST-3-011 at a concentration of 5 µM for 24 hours. (c) Cell extracts were obtained after treating SNU449Cp and SNU449T7 with DMSO, ST-2-001, ST-3-006, or ST-3-011 at the given concentrations for 24 hours. (a-c) Using the cell extracts obtained after the drug treatment, Western blotting was performed for signaling factors whose phosphorylation and activity increase in a TM4SF5-expression dependent manner.

[1] = given concentrations, 24 hours (FIG. 9c)
[2] = 5 µM, 24 hours (FIG. 9a-b, blue-lined boxes)

| SMILES | phosphorylation of some signaling factors [1] | phosphorylation of some signaling factors [2] |
| --- | --- | --- |
| COc1ccc(-c2cc(-c3ccc(NC(C)=O)cc3)no2)cc1 [ST-2-001, N-(4-(5-(4-methoxyphenyl)isoxazole-3-yl)phenyl)acetamide] | increased |  |
| CC(=O)Nc1ccc(-c2cc(-c3ccc(F)cc3)on2)cc1 [ST-3-006, N-(4-(5-(4-fluorophenyl)isoxazole-3-yl)phenyl)acetamide] | increased | increased |
| COc1ccc(-c2cc(-c3cccc(NC(C)=O)c3)no2)cc1 [ST-3-011, N-(3-(5-(4-methoxyphenyl)isoxazole-3-yl)phenyl)acetamide] | increased | increased |
